US20260327264A1, “PEPTIDE INHIBITORS OF INTERLEUKIN-23 RECEPTOR” (Zealand Pharma A/S, priority 2023, published 2026)
“Also recorded” adds a separate entry of the source. Like-named read-outs stand apart in the source and are kept apart here. *1 amine or outer side, *2 acyl side, *3 side chain or, on linkers, in order; H or OH if unused. Where a SMILES comes first, the peptide text is derived from it. Bridges are numbered along the chain shown (N, C = ends). [ ]: non-standard residue; d: D form. 2Nal = N[C@@H](Cc1ccc2ccccc2c1)C(=O)O; AEF = NCCOc1ccc(C[C@H](N)C(=O)O)cc1; X1 = O=C(Cc1ccc(CN[*:1])cc1)[*:2]; 3Pal = N[C@@H](Cc1cccnc1)C(=O)O; Cit = NC(=O)NCCC[C@H](N)C(=O)O; αMeL = CC(C)C[C@](C)(N)C(=O)O; Dab = NCC[C@H](N)C(=O)O

Assays:
[1] = tested on: IL-23 mediated STAT3 signalling (DB cells); assay: Functional inhibition of IL-23 mediated STAT3 signalling (phospho-STAT3 Tyr705) in DB cells; type: cell-based, human; details: for hIL-23 (pSTAT3) antagonist % inhibition: Table 3-2, maximal inhibitory response, EC80 of hIL-23
Summary of the method: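 DB cells preincubated 15 min with inhibitor at 37° C, 5% CO2, then stimulated 90 min with hIL-23 at EC80. Lysate phospho-STAT3 measured by MSD electrochemiluminescence. Signal normalized to IL-23-alone and buffer wells; IC50 and maximal inhibition from concentration–response curves.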

[2] = Peptide stability in simulated intestinal fluid (SIF); type: in vitro ADME; details: for remaining at 1 h, 10 µM / remaining at 4 h, 10 µM: pig
Procedure: (§1) SGF and SIF were prepared based on the United States Pharmacopeia specifications (Test Solutions, United States Pharmacopeia 35, NF 30, 2012). SGF was prepared by dissolving sodium chloride (0.2 g) in 50 mL of water. A volume of 0.7 mL of 10 M HCl was added to adjust the pH of the solution to 1.2 and the volume made up to 100 mL with water. 64 mg porcine pepsin (P7125, Sigma Aldrich) was gently dissolved into 20 mL preheated (37° C.) solution (3.2 g/L) immediately prior to the incubation. SIF was prepared by dissolving monobasic potassium phosphate (0.68 g) in 50 mL of water and adjusting the pH to 6.8 with 1 M NaOH. The volume was subsequently made up to 100 mL with water. 200 mg porcine pancreatin (P1625, Sigma Aldrich) was gently dissolved into 20 mL preheated (37° C.) solution (10 g/L) immediately prior to the incubation.
(§2) To initiate the incubations, 20 μL of peptide stock solution in 50% v/v isopropanol was deposited at the bottom of a well plate and 580 μL matrix solution was added to give a final substrate concentration of 10 μM. The incubation was performed at 37° C. with gentle shaking. 70 μL aliquots were removed at 0, 1 and 4 hours and quenched into 210 μL ice-cold precipitant solution (95% v/v acetonitrile with 0.1% v/v formic acid). After the last timepoint, the sampling plate was mixed for 10 min on a shaking table and centrifuged 10 min at 2200 g. 70 μL resulting supernatant was diluted with 150 μL water, mixed and centrifugated before analysis by liquid chromatography high resolution mass spectrometry. The zero sample was reinjected after the 4-hour sample to confirm that no drift in instrument sensitivity had occurred during the run. Percent remaining at each timepoint was calculated relative to timepoint zero based on absolute peak areas.
(§3) Compounds with a SIF stability (after 4 h) above 70% are considered highly SIF stable. Compounds with a SIF stability (after 4 h) between 30-70% (including 30% and 70%) are considered moderately SIF stable. Compounds with a SIF stability (after 4 h) below 30% are considered SIF unstable. SIF stability values above 100% are due to assay uncertainty and indicate the compound has not degraded.

human IL-23R = biological target: T1, human IL-23R (Homo sapiens, UniProt Q5VWK5); assay: Binding assay: displacement of fluorophore (TAMRA)-labelled reference compound from human IL-23R (BRET, Nluc-IL23R fusion protein membranes); details: for potency of the compound (in words): potency against IL-23R; for Emax: read-out: % displacement (hIL-23R binding)
T1 construct: Nanoluc luciferase (Nluc); secretion signal encoded by the plasmid (not specified); expressed in transfected cells; crude membranes used in the assay
T1 sequence (Q5VWK5 22-629): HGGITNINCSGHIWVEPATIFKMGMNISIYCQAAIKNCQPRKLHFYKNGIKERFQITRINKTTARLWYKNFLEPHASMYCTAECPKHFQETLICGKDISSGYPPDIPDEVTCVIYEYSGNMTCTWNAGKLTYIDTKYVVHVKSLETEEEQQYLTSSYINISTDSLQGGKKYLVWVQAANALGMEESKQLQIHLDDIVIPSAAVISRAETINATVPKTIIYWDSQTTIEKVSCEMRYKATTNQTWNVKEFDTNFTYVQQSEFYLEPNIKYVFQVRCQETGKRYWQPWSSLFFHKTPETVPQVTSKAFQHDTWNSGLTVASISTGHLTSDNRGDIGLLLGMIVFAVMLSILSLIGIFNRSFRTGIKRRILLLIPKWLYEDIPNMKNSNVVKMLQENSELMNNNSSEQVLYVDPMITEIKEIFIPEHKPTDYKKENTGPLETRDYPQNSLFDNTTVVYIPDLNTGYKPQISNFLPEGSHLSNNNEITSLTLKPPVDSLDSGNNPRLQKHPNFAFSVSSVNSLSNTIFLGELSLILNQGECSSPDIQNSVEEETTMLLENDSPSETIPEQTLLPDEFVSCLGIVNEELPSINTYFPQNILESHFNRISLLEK

[3] = Peptide stability in simulated gastric fluid (SGF); type: in vitro ADME; details: pig, pH 1.2, pepsin, 37° C.
Procedure: as §1, §2
as §3, with “SGF” for “SIF”

[4] = Table 3-2, EC80 of hIL-23, read-out: hIL-23 (pSTAT3) antagonist IC50
[5] = simulated intestinal fluid, SIF, pH 6.8, pancreatin, 37° C.
[6] = simulated intestinal fluid, SIF, pH 6.8, pancreatin, 37° C., read-out: SIF (% remaining 4 h)
[7] = EC80 of hIL-23, read-out: IC50 (pSTAT3)

Compound	hIL-23 (pSTAT3) antagonist % inhibition [1]	SIF stability (in words) ([2]; simulated intestinal fluid)	major metabolite formed after incubation in the SIF assay ([2]; simulated intestinal fluid)	potency of the compound (in words) (human IL-23R)	Emax (human IL-23R)	remaining at 1 h, 10 µM [3]	remaining at 4 h, 10 µM [3]	IC50 [1, 4]	remaining at 1 h, 10 µM [2, 5]	remaining at 4 h, 10 µM [2, 6]	IC50 [1, 7]	remaining at 4 h, 10 µM ([2]; 37 °C, simulated intestinal fluid pH 6.8 with porcine pancreatin, read-out: SIF (% after 4 h), intact peptide remaining)	IC50 (human IL-23R)
CC(C)C[C@]1(C)NC(=O)[C@H](Cc2ccc3ccccc3c2)NC(=O)[C@H](Cc2ccc(OCCN)cc2)NC(=O)[C@@H]2CCNC(=O)CC[C@H](NC(=O)[C@H](CO)NC(=O)Cc3ccc(cc3)CNC(=O)CC[C@@H](C(=O)N[C@@H](CCN)C(=O)N[C@@H](Cc3cccnc3)C(N)=O)NC1=O)C(=O)N[C@@H](Cc1c[nH]c3ccccc13)C(=O)N[C@@H](CCC(N)=O)C(=O)N2 [Ref 122, [4-Aminomethyl-phenylacetyl](1c)*SE(2c)WQ[Dab](2c)[Y(2-aminoethoxy)][2-Nal][2-Me-Leu]E(1c)[Dab][3-(3-Pyridyl)-Ala]-[NH2], reference compound]	99%	not stable	the peptide without the C-terminal 3Pal (3-(3-Pyridyl)-Ala) amino acid	potent	97%	–	–	–	–	–	–	–	–
CNC(=O)[C@H](Cc1cccnc1)NC(=O)[C@H](CCN)NC(=O)[C@@H]1CCC(=O)NCc2ccc(cc2)CC(=O)N[C@@H](CO)C(=O)N[C@H]2CCC(=O)NCC[C@H](NC(=O)[C@H](CCCNC(N)=O)NC(=O)[C@H](Cc3c[nH]c4ccccc34)NC2=O)C(=O)N[C@@H](Cc2ccc(OCCN)cc2)C(=O)N[C@@H](Cc2ccc3ccccc3c2)C(=O)N[C@@](C)(CC(C)C)C(=O)N1 [Compound 26, [4-Aminomethyl-phenylacetyl](1c)*SE(2c)W[Cit][Dab](2c)[Y(2-aminoethoxy)][2-Nal][2-Me-Leu]E(1c)[Dab][3-(3-Pyridyl)-Ala]-[NHMe]] ([X1]SEW[Cit][Dab][AEF][2Nal][αMeL]E[Dab][3Pal]-NHMe; lactam 3-6, N-10)	100%	–	–	–	–	105%	99%	0.042 nM	89%	–	–	–	–
CNC(=O)[C@H](Cc1cccnc1)NC(=O)[C@H](CCC(N)=O)NC(=O)[C@@H]1CCC(=O)NCc2ccc(cc2)CC(=O)N[C@@H](CO)C(=O)N[C@H]2CCC(=O)NCC[C@H](NC(=O)[C@H](CCC(N)=O)NC(=O)[C@H](Cc3c[nH]c4ccccc34)NC2=O)C(=O)N[C@@H](Cc2ccc(OCCN)cc2)C(=O)N[C@@H](Cc2ccc3ccccc3c2)C(=O)N[C@@](C)(CC(C)C)C(=O)N1 [Compound 33, [4-Aminomethyl-phenylacetyl](1c)*SE(2c)WQ[Dab](2c)[Y(2-aminoethoxy)][2-Nal][2-Me-Leu]E(1c)Q[3-(3-Pyridyl)-Ala]-[NHMe]] ([X1]SEWQ[Dab][AEF][2Nal][αMeL]EQ[3Pal]-NHMe; lactam 3-6, N-10)	–	–	–	–	–	98%	–	–	92%	–	–	–	–
CNC(=O)[C@H](Cc1cccnc1)NC(=O)[C@H](CCN)NC(=O)[C@@H]1CCC(=O)NCc2ccc(cc2)CC(=O)N[C@@H](Cc2ccccc2)C(=O)N[C@H]2CCC(=O)NCC[C@H](NC(=O)[C@H](CCC(N)=O)NC(=O)[C@H](Cc3c[nH]c4ccccc34)NC2=O)C(=O)N[C@@H](Cc2ccc(OCCN)cc2)C(=O)N[C@@H](Cc2ccc3ccccc3c2)C(=O)N[C@@](C)(CC(C)C)C(=O)N1 [Compound 21, [4-Aminomethyl-phenylacetyl](1c)*FE(2c)WQ[Dab](2c)[Y(2-aminoethoxy)][2-Nal][2-Me-Leu]E(1c)[Dab][3-(3-Pyridyl)-Ala]-[NHMe]] ([X1]FEWQ[Dab][AEF][2Nal][αMeL]E[Dab][3Pal]-NHMe; lactam 3-6, N-10)	102%	–	–	–	–	101%	101%	0.063 nM	–	57%	–	–	–
CC(C)C[C@]1(C)NC(=O)[C@H](Cc2ccc3ccccc3c2)NC(=O)[C@H](Cc2ccc(OCCN)cc2)NC(=O)[C@@H]2CCNC(=O)CC[C@H](NC(=O)[C@H](CO)NC(=O)Cc3ccc(cc3)CNC(=O)CC[C@@H](C(=O)N[C@@H](CCN)C(=O)NCCc3cccnc3)NC1=O)C(=O)N[C@@H](Cc1c[nH]c3ccccc13)C(=O)N[C@@H](CCC(N)=O)C(=O)N2 [Compound 7, [4-Aminomethyl-phenylacetyl](1c)*SE(2c)WQ[Dab](2c)[Y(2-aminoethoxy)][2-Nal][2-Me-Leu]E(1c)[Dab]-[NH-(2-(pyridin-3-yl)ethyl)]]	98%	SIF stable	–	more potent than Compound 6; also recorded: particularly potent	–	–	–	0.13 nM	103%	–	0.13 nM	130%	–
CC(C)C[C@]1(C)NC(=O)[C@H](Cc2ccc3ccccc3c2)NC(=O)[C@H](Cc2ccc(OCCN)cc2)NC(=O)[C@@H]2CCNC(=O)CC[C@H](NC(=O)[C@H](CO)NC(=O)Cc3ccc(cc3)CNC(=O)CC[C@@H](C(=O)N[C@@H](CCN)C(=O)N[C@H](Cc3cccnc3)C(N)=O)NC1=O)C(=O)N[C@@H](Cc1c[nH]c3ccccc13)C(=O)N[C@@H](CCC(N)=O)C(=O)N2 [Compound 5, [4-Aminomethyl-phenylacetyl](1c)*SE(2c)WQ[Dab](2c)[Y(2-aminoethoxy)][2-Nal][2-Me-Leu]E(1c)[Dab][{d}3-(3-Pyridyl)-Ala]-[NH2]]	95%	–	–	–	–	–	105%	2.1 nM	91%	–	2.1 nM	–	–
CC(C)C[C@@H]1NC(=O)[C@H](Cc2c[nH]c3ccccc23)NC(=O)[C@H](Cc2c[nH]c3ccccc23)NC(=O)[C@@H]2CSCC(=O)CSC[C@H](NC(=O)[C@H](CO)NC(=O)[C@@H](NC(=O)[C@@H](N)CC(=O)O)CSCC(=O)CSC[C@@H](C(=O)N[C@@H](CCCNC(=N)N)C(N)=O)NC1=O)C(=O)N[C@@H](Cc1c[nH]c3ccccc13)C(=O)N[C@@H](CCC(N)=O)C(=O)N2 (single isomer, unassigned) [I3 (isomer 3), H-DC(1a)SC(2a)WQC(2a)WWLC(1a)R-[NH2], reference compound]	–	–	–	–	–	5%	0%	–	0%	0%	–	–	–
CNC(=O)[C@H](Cc1cccnc1)NC(=O)[C@H](CCN)NC(=O)[C@@H]1CCC(=O)NCc2ccc(cc2)CC(=O)N[C@@H](C)C(=O)N[C@H]2CCC(=O)NCC[C@H](NC(=O)[C@H](CCC(N)=O)NC(=O)[C@H](Cc3c[nH]c4ccccc34)NC2=O)C(=O)N[C@@H](Cc2cnc3ccccc3c2)C(=O)N[C@@H](Cc2ccc3ccccc3c2)C(=O)NC(C)(C)C(=O)N1 [Compound 52, [4-aminomethyl-phenylacetyl](1c)*AE(2c)WQ[Dab](2c)[3-quinolinylalanine][2Nal][Aib]E(1c)[Dab][3-(3-Pyridyl)-alanyl]-[NHMe]]	99%	–	–	–	102%	–	–	0.6 nM	92%	95%	–	–	0.081 nM
